Reference: BindingDB's records for doi:10.1021/jm00045a012 (Dupont Pharmaceuticals, 1994)

Target: Stromelysin-1 (MMP-3) (Homo sapiens) (UniProt P08254)
Test: Tested for the inhibition of prostromelysin activation with no preincubation period

Stromelysin-1 (MMP-3) (Homo sapiens), sequence (P08254 whole entry, looked up): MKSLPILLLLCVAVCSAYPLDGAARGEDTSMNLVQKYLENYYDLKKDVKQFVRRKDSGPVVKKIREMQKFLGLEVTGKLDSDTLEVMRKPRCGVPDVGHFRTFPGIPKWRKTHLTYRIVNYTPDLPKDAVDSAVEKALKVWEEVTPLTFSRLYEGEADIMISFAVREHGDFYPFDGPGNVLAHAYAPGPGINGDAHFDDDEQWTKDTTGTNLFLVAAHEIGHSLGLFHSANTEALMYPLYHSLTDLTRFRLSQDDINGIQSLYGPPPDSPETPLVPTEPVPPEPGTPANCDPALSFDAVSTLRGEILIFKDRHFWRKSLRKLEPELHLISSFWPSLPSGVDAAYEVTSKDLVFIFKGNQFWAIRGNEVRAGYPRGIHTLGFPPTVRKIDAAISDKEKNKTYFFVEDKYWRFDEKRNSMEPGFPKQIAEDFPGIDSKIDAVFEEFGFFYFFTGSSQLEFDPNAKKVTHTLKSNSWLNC

Structure (SMILES) | IC50 [µM]
COc1ccc(-n2sc3ncccc3c2=O)c(OC)c1 [2-(2,4-Dimethoxy-phenyl)-isothiazolo[5,4-b]pyridin-3-one] | 62
COc1ccc(OC)c(-n2sc3ncccc3c2=O)c1 [2-(2,5-Dimethoxy-phenyl)-isothiazolo[5,4-b]pyridin-3-one] | 53
